In this experiment the target is T1, Siglec5 (Homo sapiens, UniProt O15389, C36A).
T1 sequence (O15389 19-141 C36A): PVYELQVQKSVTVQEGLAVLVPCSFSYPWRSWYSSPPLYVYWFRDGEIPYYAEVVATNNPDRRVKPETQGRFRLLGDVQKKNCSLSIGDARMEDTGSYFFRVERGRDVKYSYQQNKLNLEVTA
Briefly: 2D 1H-15N HSQC NMR titration. In kind it is binding.

For `CC(=O)N[C@H]1[C@H]([C@H](O)[C@H](O)CO)O[C@@](OC[C@H]2O[C@@H](O[C@H]3[C@H](O)[C@@H](O)C(O)O[C@@H]3CO)[C@H](O)[C@@H](O)[C@H]2O)(C(=O)O)C[C@@H]1O` (some centres unmarked) [6′-sialyllactose], binding was characterised by a dissociation constant (Kd) of 31 ± 8 mM. In the case of `CC(=O)N[C@H]1[C@H]([C@H](O)[C@H](O)CO)OC(O)(C(=O)O)C[C@@H]1O` (mixture of isomers) [sialic acid] it was more than 100 mM.
